ChEMBL document CHEMBL3272313, “3-Hydroxy-17-aralkylmorphinans as potential opiate receptor-site-directed alkylating agents” (J Med Chem, 1977)
Active and inactive are the calls of the source. The calls are words filed in the database; no cut-off is given here.

Legend:
Mus musculus [1] = test: Analgesic activity in sc dosed Swiss-Webster mouse after 6.5 hrs; assay type: functional, organism-based
Mus musculus [2] = test: Analgesic activity in sc dosed Swiss-Webster mouse time of peak effect; assay type: functional
Mus musculus [3] = test: Analgesic activity in Swiss-Webster mouse assessed as time required for sustainance of activity at 70 mg/kg, sc; assay type: functional; conditions: route subcutaneous
Mus musculus [4] = test: Analgesic activity in sc dosed Swiss-Webster mouse after 30 mins; assay type: functional; conditions: 0.5 h

O=C(CBr)Nc1ccccc1CCN1CC[C@]23CCCC[C@H]2[C@H]1Cc1ccc(O)cc13
Activity (Mus musculus [1]): Active | Time (Mus musculus [2]): 30 min | Time (Mus musculus [3]): 6.5 h | ED50 (Mus musculus [4]): 16 mg/kg
